“Also recorded” adds a separate entry of the source. Read-outs that look alike come from different tables or passages of the source. Where a SMILES comes first, the peptide text is derived from it. [ ]: non-standard residue; d: D form.
Tests used:
[1] = in vivo
Procedure: A weight of each mouse was measured before being died of bleeding.
As a result, in the control group into which a peptide was not administered (n=8), the number of dead individuals after 24 days from transplanting the A431-CNGB3-myc cells into the peritoneal cavity was 1, and the alive rate was […]. With respect to this, in a group into which the IF7 (RR)−(K+H) peptide was administered such that the IF7 (RR)−(K+H) peptide was 10 μg/body/day or 50 μg/body (n=6), the alive rate was 100%. In addition, at the time of the end of the test, the spread of cancer cells (A431-CNGB3-myc cells) in the peritoneal cavity of all mice was examined.

[2] = system: A431-CNGB3-myc cells; assay: Cytocidal activity by ATP amount (CellTiter-Glo luminescence) in peptide-treated A431-CNGB3-myc cells; type: cell-based, human; conditions: for cytocidal activity (relative ATP amount %): Example 6, A431-CNGB3-myc cells, 2.34 to 300.0 μM, FIG. 10
Procedure: A transformed cell (A431-CNGB3-myc cell) obtained by introducing a gene encoding human CNGB3, in which an myc tag was fused in a C-terminal, into an A431 cell (human epithelial-like cell cancer-derived cell strain) and forcibly expressing thereof was prepared as an endometriosis model cell.
Culturing of the A431-CNGB3-myc cell was performed at 37° C. in a 5 volume % carbon dioxide environment using a medium in which 10% of inactivated FBS (bovine fetal serum, manufactured by Corning Corporation) and 1% of penicillin-streptomycin (manufactured by Invitrogen Corporation) were contained in a DMEM High Glucose medium (manufactured by GIBCO Corporation), as a culture medium. Passage was performed every two or three days.
The cytocidal activity of each peptide was evaluated by measuring an ATP amount in A431-CNGB3-myc cells treated with each peptide using CellTiter-Glo (registered trademark) assay kit (manufactured by Promega).
Specifically, first, A431-CNGB3-myc cells after 2 passages were disseminated into a 96-well plate (manufactured by Corning/Costar, Lot No. 00515003) so as to be 1×10^4 cells/well by preparing the concentration of the cells. After culturing for 2 days after the dissemination, each peptide was added to each well such that a final concentration was […], 75, or 150 μM, respectively, and cultured for 24 hours. Thereafter, the culture supernatant was removed from each well, and CellTiter-Glo buffer was added to the remaining cells, and after homogenization, the supernatant was recovered by centrifugation and used as a lysate. A double quantity of PBS and a 2×CellTiterGlo Reagent of the equivalent amount of the lysate were added to the lysate and stirred to obtain a reaction solution, and the reaction solution was stood at room temperature for 10 minutes. The luminescence intensity (Luminescence) (RLU: RELATIVE LIGHT UNITS) of the reaction solution after standing at room temperature was measured using a Synergy H1 hybrid multi-mode microplate reader (manufactured by BioTek Corporation). The luminescence intensity of the reaction solution is an indicator of the amount of ATP. It is shown that the smaller the luminescence intensity of the reaction solution is, the amount of ATP is small, and the cytocidal activity of the administered peptide is strong. All trials were measured in triplicate and the average was evaluated as the cytocidal activity at the concentration of each peptide.
The final concentration of each peptide added to the A431-CNGB3-myc cells disseminated into the 96-well plate was set to be 2.34, 4.69, 9.38, 18.8, 37.5, 75, or 150 μM, and the cytocidal activity of each peptide was evaluated in the same manner as that of Reference Example 1, except that the culture time after addition of the peptide was set to 20 hours. In the evaluation of the cytocidal activity against the A431-CNGB3-myc cells of each peptide, the measurement result of the fluorescence intensity (RLU) of each reaction solution is shown in FIG. 2. In the figure, “1” to “16” show the result of the reaction solution to which peptides 1 to 16 of Table 2 were added, respectively.
The cytocidal activity of each peptide was evaluated in the same manner as that of Example 1, except that the final concentration of each peptide added to each cell disseminated into the 96-well plate was set to be 0 (peptide non-added), 2.34, 4.69, 9.38, 18.8, 37.5, 75.0, 150.0, or 300.0 μM. A relative fluorescence intensity (%) of each reaction solution in a case Where the fluorescence intensity (RLU) of the reaction solution to which no peptide was added was set to 100% was calculated as a relative ATP amount (%). […]

[3] = system: Ishikawa, SNG-II, Hec-1A and RL95-2 cells (cell strains derived from a uterine cancer cell); assay: Cytocidal activity by relative ATP amount (CellTiter-Glo) in cell strains derived from uterine cancer cells; type: cell-based, human; conditions: Example 6, 2.34 to 300.0 μM, 20 hours, FIGS. 11 to 14
Procedure: As the cancer-derived cell strain, an Ishikawa cell derived from human endometrium gland cancer, an SNG-II cell derived from human endometrium cancer, an Hec-1A cell derived from human uterine body cancer, and a RL95-2 cell derived from human endometrium cancer were used. The cells were cultured in the same manner as the A431-CNG133-myc cells.
The cytocidal activity of each peptide was evaluated in the same manner as that of Example 1, except that the final concentration of each peptide added to each cell disseminated into the 96-well plate was set to be 0 (peptide non-added), 2.34, 4.69, 9.38, 18.8, 37.5, 75.0, 150.0, or 300.0 μM. A relative fluorescence intensity (%) of each reaction solution in a case Where the fluorescence intensity (RLU) of the reaction solution to which no peptide was added was set to 100% was calculated as a relative ATP amount (%). In the figure, the “14D−Z13+5D−Z13” represents a relative ATP amount of the reaction solution to which both of a peptide A2-1 and a peptide A2-2 were added, the “14D−Z13” represents a relative ATP amount of the reaction solution to which only the peptide A2-1 was added, the “5D−Z13” represents a relative ATP amount of the reaction solution to Which only the peptide A2-2 was added, and the “14D−5D−Z13” represents a relative ATP amount (%) of the reaction solution to which only the peptide A2 was added, respectively.

[4] = Reference Example 1, peptide 35.5, 75 or 150 μM, 24 hours, FIG. 1
[5] = Example 1, peptide 2.34 to 150 μM, 20 hours, FIG. 2

## CC(C)C[C@@H](NC(=O)[C@H](N)CCCCN)C(=O)N[C@H](C)C(=O)N[C@H](CCCCN)C(=O)N[C@H](CC(C)C)C(=O)N[C@H](C)C(=O)N[C@H](CCCCN)C(=O)N[C@H](CCCCN)C(=O)N[C@H](CC(C)C)C(=O)N[C@H](C)C(=O)N[C@H](CCCCN)C(=O)N[C@H](CC(C)C)C(=O)N[C@H](C)C(=O)N[C@H](CCCCN)C(=O)N[C@H](Cc1c[nH]cn1)C(=O)N[C@H](CC(C)C)C(=O)N[C@H](C)C(=O)N[C@H](Cc1c[nH]cn1)C(=O)N[C@H](CC(C)C)C(=O)N[C@H](C(=O)N[C@@H](CCCNC(=N)N)C(=O)N[C@@H](CCCNC(=N)N)C(=O)N[C@@H](C)C(=O)N[C@@H](CC(=O)O)C(=O)N[C@@H](CC(N)=O)C(=O)N[C@@H](CCCNC(=N)N)C(=O)N1CCC[C@H]1C(=O)NCC(=O)O)C(C)C [Peptide A2, KLAKLAK-KLAKLAK-HLAHL-VRRADNRPG] (H-[dK][dL][dA][dK][dL][dA][dK][dK][dL][dA][dK][dL][dA][dK][dH][dL][dA][dH][dL]VRRADNRPG-OH)
[1]; ip
  weight of each mouse: no particular change

## KLAKLAK-KLAKLAK-HLAHLAH-HLAHLAH-VRRAENRPG (KLAKLAKKLAKLAKHLAHLAHHLAHLAHVRRAENRPG; KLAK(14)-HLAH(14)-D5E peptide) [Peptide D5E]
[2]; [4]
  cytocidal activity (luminescence intensity RLU, indicator of ATP amount): concentration-dependent cytocidal activity

## KLAKLAK-KLAKLAK-HLAHLAH-VRRADNRPG (KLAKLAKKLAKLAKHLAHLAHVRRADNRPG; KLAK(14)-HLAH(7)-Z13 peptide) [Peptide 8]
[2]; [5]
  cytocidal activity, comparison between peptides: stronger cytocidal activity than the longest peptide 1; also recorded: strongest cytocidal activity

## KLAKLAK-KLAKLAK-HLAHLAH-HLAHLAH-VRRADNRPG (KLAKLAKKLAKLAKHLAHLAHHLAHLAHVRRADNRPG; D-residues) [WT]
[2]; [4]
  cytocidal activity (luminescence intensity RLU, indicator of ATP amount): concentration-dependent cytocidal activity
  cytocidal activity, comparison between peptides: stronger cytocidal activity than the peptide D5E

## HLAHL-VRRADNRPG (HLAHLVRRADNRPG; KLAK(14)-HLAH(5)-Z13 peptide) [Peptide A2-2]
[2]; 20 hours
  cytocidal activity (relative ATP amount %): hardly observed or significantly weak
[3]
  cytocidal activity (relative ATP amount %): hardly observed or significantly weak

## KLAKLAK-KLAKLAK-VRRADNRPG (KLAKLAKKLAKLAKVRRADNRPG; KLAK(14D)-Z13 peptide) [Peptide A2-1]
[2]; 20 hours
  cytocidal activity (relative ATP amount %): hardly observed or significantly weak
[3]
  cytocidal activity (relative ATP amount %): hardly observed or significantly weak

## CC[C@H](C)[C@H](N)C(=O)N[C@@H](Cc1ccccc1)C(=O)N[C@@H](CC(C)C)C(=O)N[C@@H](CC(C)C)C(=O)N[C@@H](Cc1c[nH]c2ccccc12)C(=O)N[C@@H](CCC(N)=O)C(=O)N[C@@H](CCCNC(=N)N)C(=O)N[C@@H](CCCNC(=N)N)C(=O)N[C@@H](CCCNC(=N)N)C(=O)N[C@H](CCCCN)C(=O)N[C@H](CC(C)C)C(=O)N[C@H](C)C(=O)N[C@H](CCCCN)C(=O)N[C@H](CC(C)C)C(=O)N[C@H](C)C(=O)N[C@H](CCCCN)C(=O)N[C@H](CCCCN)C(=O)N[C@H](CC(C)C)C(=O)N[C@H](C)C(=O)N[C@H](CCCCN)C(=O)N[C@H](CC(C)C)C(=O)N[C@H](C)C(=O)N[C@H](CCCCN)C(=O)N[C@H](Cc1c[nH]cn1)C(=O)N[C@H](CC(C)C)C(=O)N[C@H](C)C(=O)N[C@H](Cc1c[nH]cn1)C(=O)N[C@H](CC(C)C)C(=O)O [IF7 (RR)−(K+H) peptide, IFLLWQR-RR-KLAKLAK-KLAKLAK-HLAHL] (H-IFLLWQRRR[dK][dL][dA][dK][dL][dA][dK][dK][dL][dA][dK][dL][dA][dK][dH][dL][dA][dH][dL]-OH)
[1]
  weight of each mouse: no particular change

## HLAHLAH-HLAHLAH-KLAKLAK-VRRADNRPG (HLAHLAHHLAHLAHKLAKLAKVRRADNRPG; HLAH(14)-KLAK(13)-Z13 peptide) [Peptide 16]
[2]; [5]
  cytocidal activity, comparison between peptides: stronger cytocidal activity than the longest peptide 9
